The values below come from patent US7608627B2, “6-azaindole compound” (Takeda Pharmaceutical Company Limited, priority 2005, dated 2009).

Counter-ions that a name gives are not always drawn.

On to `O=C(c1ccc(Cl)cc1)c1cc2ccncc2[nH]1` [Example 103, (4-Chlorophenyl)(1H-pyrrolo[2,3-c]pyridin-2-yl)methanone], for which the melting point was 274 to 277 °C (dec.).
With `CC(C)(C)OC(=O)NCCO/N=C(\c1ccc(Cl)cc1)c1cc2ccncc2[nH]1` (single isomer, unassigned) [Example 116, tert-Butyl 2-[[[(4-chlorophenyl)(1H-pyrrolo[2,3-c]pyridin-2-yl)methylene]amino]oxy]ethylcarbamate] the figure was 166 to 169 °C; with `N=C(N)NN=C(c1ccccc1)c1cc2ccncc2[nH]1` (as salt: hydrochloride), 306 to 310 °C.
With `O=C(Nc1ccncc1)c1cc2ccnc(Cl)c2[nH]1` [Example 22, 7-Chloro-N-(4-pyridinyl)-1H-pyrrolo[2,3-c]pyridine-2-carboxamide] the figure was more than 320 °C.
Then `O=C(NC(c1ccccc1)c1cc2ccncc2[nH]1)c1cccnc1` (stereo not shown) [Example 43, N-[Phenyl(1H-pyrrolo[2,3-c]pyridin-2-yl)methyl]nicotinamide], with 178 to 188 °C; and `CC(C)(C)OC(=O)NCCCO/N=C(\c1ccccc1)c1cc2ccncc2[nH]1` [Example 76, tert-Butyl 3-[[[phenyl(1H-pyrrolo[2,3-c]pyridin-2-yl)methylene]amino]oxy]propylcarbamate], with 52 to 58 °C.
Compound `O=C(NCc1cccs1)c1cc2ccnc(N(Cc3ccccc3)Cc3ccccc3)c2[nH]1` [Example 38, 7-(Dibenzylamino)-N-(2-thienylmethyl)-1H-pyrrolo[2,3-c]pyridine-2-carboxamide] came in with a melting point of 152 to 154 °C.
With `COc1ccc(C(=O)c2cc3ccncc3[nH]2)cc1` [Example 102, (4-Methoxyphenyl)(1H-pyrrolo[2,3-c]pyridin-2-yl)methanone] the figure was 225 to 228 °C; with `Cl.Cl.c1ccc(C(=NOC2CCCNC2)c2cc3ccncc3[nH]2)cc1` (single isomer, unassigned), 240 to 245 °C (dec.); with `Cl.Clc1nccc2cc(CNCCN3CCOCC3)[nH]c12`, 146 to 150 °C.
Then `OC(Cc1ccccc1)c1cc2ccncc2[nH]1` (stereo not shown) [Example 85, 2-Phenyl-1-(1H-pyrrolo[2,3-c]pyridin-2-yl)ethanol], with 169 to 172 °C (dec.); and `CNCc1cc2ccnc(Cl)c2[nH]1.Cl`, with 264 to 266 °C (dec.).
Then `CCNCc1cc2ccnc(Cl)c2[nH]1.Cl`, with 242 to 245 °C (dec.).
Take `CC(=O)N1CCN(C(=O)c2cc3ccnc(Cl)c3[nH]2)CC1` [Example 12, 2-[(4-Acetyl-1-piperazinyl)carbonyl]-7-chloro-1H-pyrrolo[2,3-c]pyridine]: the melting point lay in the range of 179 to 184 °C.
The compound `Cl.Clc1nccc2cc(CNCc3ccco3)[nH]c12` showed a melting point of 98 to 101 °C.
Take `CC(C)/C(=N\NC(=N)N)c1cc2ccncc2[nH]1` (as salt: hydrochloride): the melting point is 242 to 245 °C.
With `O=C(c1cc2ccncc2[nH]1)N1CCCC1` [Example 33, 2-(1-Pyrrolidinylcarbonyl)-1H-pyrrolo[2,3-c]pyridine], the melting point was 260 to 275 °C (dec.).
`O=C(NCc1cccnc1)c1cc2ccnc(Cl)c2[nH]1` [Example 5, 7-Chloro-N-(3-pyridinylmethyl)-1H-pyrrolo[2,3-c]pyridine-2-carboxamide] returned a melting point of 189 to 191 °C.
In turn, `O=C(c1cc2ccnc(Cl)c2[nH]1)N1CCOCC1` [Example 3, 7-Chloro-2-(4-morpholinylcarbonyl)-1H-pyrrolo[2,3-c]pyridine] had a melting point of 170 to 171 °C.
With `O=C(NCc1ccccc1)c1cc2ccnc(Cl)c2[nH]1` [Example 2, N-Benzyl-7-chloro-1H-pyrrolo[2,3-c]pyridine-2-carboxamide], the melting point was 217 to 220 °C.
With `O=C(c1ccccn1)c1cc2ccncc2[nH]1` [Example 122, (Pyridin-2-yl)(1H-pyrrolo[2,3-c]pyridin-2-yl)methanone] the figure was 219 to 222 °C.
With `NCCO/N=C(/c1ccc(Cl)cc1)c1cc2ccncc2[nH]1` (single isomer, unassigned) (as salt: trifluoroacetate) [Example 126, (4-Chlorophenyl)(1H-pyrrolo[2,3-c]pyridin-2-yl)methanone O-(2-aminoethyl)oxime bis(hydrogen trifluoroacetate)] the figure was 146 to 150 °C; with `O=C(NCc1ccccn1)c1cc2ccncc2[nH]1` [Example 27, N-(2-Pyridinylmethyl)-1H-pyrrolo[2,3-c]pyridine-2-carboxamide], 230 to 236 °C; with `Cl.c1ccc(CON=C(c2ccccc2)c2cc3ccncc3[nH]2)cc1`, 153 to 155 °C.
Then `CON=C(c1ccccc1)c1cc2ccncc2[nH]1.Cl` [Example 121], with 220 to 222 °C; and `Cl.Clc1nccc2cc(CNC3CCN(Cc4ccccc4)CC3)[nH]c12`, with 295 to 310 °C (dec.).
For the compound `C/C(=N\NC(=N)N)c1cc2ccncc2[nH]1` (as salt: hydrochloride) [Example 71, [[1-(1H-Pyrrolo[2,3-c]pyridin-2-yl)ethylidene]amino]guanidine dihydrochloride], the melting point is 314 to 318 °C (dec.).
Then `CC(N)c1cc2ccncc2[nH]1` (stereo not shown) (as salt: hydrochloride) [Example 75, 1-(1H-Pyrrolo[2,3-c]pyridin-2-yl)ethylamine dihydrochloride], with 289 to 292 °C; and `O=C(Nc1cccnc1)c1cc2ccncc2[nH]1` [Example 30, N-(3-Pyridinyl)-1H-pyrrolo[2,3-c]pyridine-2-carboxamide], with 270 to 290 °C; and `Cl.NCCO/N=C(\c1ccccc1)c1cc2ccncc2[nH]1` [Example 67], with 176 to 184 °C (dec.).
For `Cl.Clc1nccc2cc(CNCc3ccccn3)[nH]c12`, the melting point lay within 176 to 179 °C.
Then `O=C(c1ccccc1)c1cc2ccncc2[nH]1` [Example 35, Phenyl(1H-pyrrolo[2,3-c]pyridin-2-yl)methanone], with 245 to 247 °C; and `O=C(NCc1ccncc1)c1cc2ccnc(Cl)c2[nH]1` [Example 6, 7-Chloro-N-(4-pyridinylmethyl)-1H-pyrrolo[2,3-c]pyridine-2-carboxamide], with more than 340 °C.
Then `O=C(NC(c1ccccc1)c1cc2ccncc2[nH]1)c1ccccc1` (stereo not shown) [Example 51, N-[Phenyl(1H-pyrrolo[2,3-c]pyridin-2-yl)methyl]benzamide], with 206 to 208 °C.
With `COc1ccc(C(O)c2cc3ccncc3[nH]2)cc1` (stereo not shown) [Example 99, (4-Methoxyphenyl)(1H-pyrrolo[2,3-c]pyridin-2-yl)methanol] the figure was 183 to 185 °C (dec.); with `O=C(O)CO/N=C(\c1ccccc1)c1cc2ccncc2[nH]1` [Example 66, [[[Phenyl(1H-pyrrolo[2,3-c]pyridin-2-yl)methylene]amino]oxy]acetic acid], 68 to 73 °C; with `O=C(c1ccsc1)c1cc2ccncc2[nH]1` [Example 32, (1H-Pyrrolo[2,3-c]pyridin-2-yl)(thien-3-yl)methanone], 178 to 181 °C (dec.).
The compound `OCc1cc2ccnc(Cl)c2[nH]1` [Example 1, (7-Chloro-1H-pyrrolo[2,3-c]pyridin-2-yl)methanol] gave a melting point of 185 to 187 °C.
Then `O=C(NC(c1ccccc1)c1cc2ccncc2[nH]1)c1ccncc1` (stereo not shown) [Example 49, N-[Phenyl (1H-pyrrolo[2,3-c]pyridin-2-yl)methyl]isonicotinamide], with 182 to 192 °C; and `O=C(NCc1cccs1)c1cc2ccnc(Cl)c2[nH]1` [Example 8, 7-Chloro-N-(2-thienylmethyl)-1H-pyrrolo[2,3-c]pyridine-2-carboxamide], with 179 to 181 °C; and `O=C(Nc1ccccn1)c1cc2ccnc(Cl)c2[nH]1` [Example 20, 7-Chloro-N-(2-pyridinyl)-1H-pyrrolo[2,3-c]pyridine-2-carboxamide], with 94 to 102 °C.
With `Cl.Clc1nccc2cc(CNCc3ccccc3)[nH]c12` the figure was 201 to 204 °C.
Then `CC(C)C/C(=N\NC(=N)N)c1cc2ccncc2[nH]1` (as salt: hydrochloride), with 232 to 236 °C; and `O=C(NCc1ccco1)c1cc2ccnc(Cl)c2[nH]1` [Example 7, 7-Chloro-N-(2-furylmethyl)-1H-pyrrolo[2,3-c]pyridine-2-carboxamide], with 205 to 209 °C.
Turning to `O=C(Nc1cccnc1)c1cc2ccnc(Cl)c2[nH]1` [Example 21, 7-Chloro-N-(3-pyridinyl)-1H-pyrrolo[2,3-c]pyridine-2-carboxamide], the melting point was more than 320 °C.
Then `O=C(NCc1cccnc1)c1cc2ccnc(N(Cc3ccccc3)Cc3ccccc3)c2[nH]1` [Example 37, 7-(Dibenzylamino)-N-(3-pyridinylmethyl)-1H-pyrrolo[2,3-c]pyridine-2-carboxamide], with 105 to 108 °C.
With `Cc1ccc(C(=O)c2cc3ccncc3[nH]2)cc1` [Example 100, (4-Methylphenyl)(1H-pyrrolo[2,3-c]pyridin-2-yl)methanone] the figure was 264 to 268 °C (dec.); with `NCc1cc2ccncc2[nH]1` (as salt: hydrochloride), 302 to 303 °C.
With `c1ccc(C(=NOC2CCCNC2)c2cc3ccncc3[nH]2)cc1` (single isomer, unassigned) (as salt: hydrochloride) the figure was 240 to 245 °C (dec.); with `O=C(c1ccccc1)c1cc2ccnc(Cl)c2[nH]1` [Example 29, (7-Chloro-1H-pyrrolo[2,3-c]pyridin-2-yl)(phenyl)methanone], 152 to 153 °C; with `NC(c1ccccc1)c1cc2ccncc2[nH]1` (stereo not shown) (as salt: hydrochloride) [Example 40, 1-Phenyl-1-(1H-pyrrolo[2,3-c]pyridin-2-yl)methylamine dihydrochloride], 240 to 250 °C.
Take `CC(C)CC(O)c1cc2ccncc2[nH]1` (stereo not shown) [Example 79, 3-Methyl-1-(1H-pyrrolo[2,3-c]pyridin-2-yl)-1-butanol]: the melting point was 182 to 189 °C (dec.).

Usually melting point stands for the temperature of the solid-liquid transition.
